Laboratory results: article PMC5011342, “A high throughput drug screening assay to identify compounds that promote oligodendrocyte differentiation using acutely dissociated and purified oligodendrocyte precursor cells” (BMC Research Notes, 2016)
Read-outs that look alike come from different tables or passages of the source.

How the values were obtained:
expanded OPCs = assay: cells; details: for viability at 0.1 µM / viability at 1 µM / viability at 10 µM: Rattus norvegicus, 72 h
Procedure, shortened: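 Expanded OPCs seeded at 10,000 cells/well in differentiation media, then exposed to NCC library compounds at 10, 1 and 0.1 µM (quadruplicate, 0.1% DMSO) for three days. Viability read as alamarBlue fluorescence (560/590 nm) after 4 h at 37 °C; tunicamycin 5 ng/ml served as toxicity control.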

[1] = system: acutely dissociated and purified rat OPCs; assay: Acute OL differentiation assay (MBP expression/cell, immunofluorescent image quantification); format: cell-based
Procedure, shortened: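 Oligodendrocyte precursor cells were enriched from P6-P7 Sprague–Dawley rat brains by immunopanning (RAN-2 and GalC depletion, O4 selection), plated at 5000 cells/well in serum-free, mitogen-free differentiation media on PDL/laminin 96-well view plates, centrifuged at 200×g, and pre-incubated 1–2 h before test compounds were added in quadruplicate. On DIV4, cells were fixed, stained for MBP and DAPI, imaged automatically, and MBP expression per cell was quantified.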

[2] = read-out: 0.1 µM (% DMSO), alamarBlue viability of expanded OPCs, compound at 0.1 µM, sheet All Tox data
[3] = read-out: 1 µM (% DMSO), alamarBlue viability of expanded OPCs, compound at 1 µM, sheet All Tox data
[4] = read-out: 10 µM (% DMSO), alamarBlue viability of expanded OPCs, compound at 10 µM, sheet All Tox data
[5] = Rattus norvegicus, 2 uM test compound, relative to quetiapine, sheet "All OLga data", read-out: OL differentiation, 2 uM (% Quet)
[6] = Rattus norvegicus, 10 uM test compound, relative to quetiapine, sheet "All OLga data", read-out: OL differentiation, 10 uM (% Quet)
[7] = read-out: 0.1 µM (% DMSO), alamarBlue viability, NCC library compound at 0.1 µM, sheet "All Tox data"
[8] = read-out: 1 µM (% DMSO), alamarBlue viability, NCC library compound at 1 µM, sheet "All Tox data"
[9] = read-out: 10 µM (% DMSO), alamarBlue viability, NCC library compound at 10 µM, sheet "All Tox data"
[10] = Rattus norvegicus, test compound at 2 uM, NCC library screen, sheet "All OLga data", relative to quetiapine, read-out: 2 uM (% Quet)
[11] = Rattus norvegicus, test compound at 10 uM, NCC library screen, sheet "All OLga data", relative to quetiapine, read-out: 10 uM (% Quet)
[12] = alamarBlue viability of expanded OPCs, compound at 0.1 µM, relative to DMSO control
[13] = alamarBlue viability of expanded OPCs, compound at 1 µM, relative to DMSO control
[14] = alamarBlue viability of expanded OPCs, compound at 10 µM, relative to DMSO control
[15] = Rattus norvegicus, test compound at 0.4 uM, NCC library screen, sheet "All OLga data", relative to quetiapine, read-out: 0.4 uM (% Quet)
[16] = Rattus norvegicus, 0.4 uM test compound, relative to quetiapine, sheet "All OLga data", read-out: OL differentiation, 0.4 uM (% Quet)
[17] = Rattus norvegicus, test compound at 2 uM, MBP expression relative to quetiapine, NCC library screen, sheet "All OLga data", read-out: 2 uM (% Quet)
[18] = Rattus norvegicus, test compound at 10 uM, MBP expression relative to quetiapine, NCC library screen, sheet "All OLga data", read-out: 10 uM (% Quet)

SMILES	activation at 2 µM [1, 5] [%]	viability at 0.1 µM (expanded OPCs; [7]) [%]	viability at 1 µM (expanded OPCs; [8]) [%]	viability at 10 µM (expanded OPCs; [9]) [%]	activation at 2 µM [1, 10] [%]	activation at 10 µM [1, 11] [%]	0.1 µM (% DMSO) (expanded OPCs; [12])	1 µM (% DMSO) (expanded OPCs; [13])	10 µM (% DMSO) (expanded OPCs; [14])	further results
C#C[C@]1(O)CC[C@H]2[C@@H]3CCC4=CC(=O)CC[C@@H]4[C@H]3CC[C@@]21CC [Levonorgestrel]	7.5									viability at 0.1 µM (expanded OPCs; [2]): 97.5%; viability at 1 µM (expanded OPCs; [3]): 88%; viability at 10 µM (expanded OPCs; [4]): 91.5%; activation at 10 µM [1, 6]: -8.6%
C[C@@H]1C[C@H]2[C@@H]3C[C@H](F)C4=CC(=O)C=C[C@]4(C)[C@@]3(F)[C@@H](O)C[C@]2(C)[C@@]1(O)C(=O)SCF [Fluticasone]	14.2									viability at 0.1 µM (expanded OPCs; [2]): 103%; viability at 1 µM (expanded OPCs; [3]): 106%; viability at 10 µM (expanded OPCs; [4]): 112%; activation at 10 µM [1, 6]: -38.8%
c1ccc(Cn2ccnc2)cc1 [1-Benzylimidazole]		85.4	91.8	94.3	0.1	10.7				
Oc1cc(Cl)ccc1Oc1ccc(Cl)cc1Cl [Triclosan]							100.2	117.5	9.2	activation at 0.4 µM [1, 15]: 8.6%
NNC(=O)c1ccncc1 [Isoniazid]					-8.7	3.1	98.2	98.4	66.3	
O=C1Nc2ccc(Cl)cc2[C@@](C#CC2CC2)(C(F)(F)F)O1 [Efavirenz]	40.9	90.4	85.6	16.8						activation at 0.4 µM [1, 16]: 3.8%
Cc1nc2ccccn2c(=O)c1CCN1CCC(C(=O)c2ccc(F)cc2)CC1 [Pirenperone]	31.6	102	92.1	83						activation at 10 µM [1, 6]: 62.7%
CCCNC(=O)NS(=O)(=O)c1ccc(Cl)cc1 [Chlorpropamide]					-27.8	-19	185.9	197.2	208.8	
CN(C)CCOc1ccc(/C(=C(/CCCl)c2ccccc2)c2ccccc2)cc1 [Toremifene, reference compound]		174	57.8	9.9	-169					activation at 0.4 µM [1, 15]: 74.9%; EC50 ([1]; Rattus norvegicus, average EC50 for induction of OL differentiation from independent biological replicates, eight concentrations): 100 nM; hit in OL differentiation assay, MRF-TMC ([1]; ● = confirmed hit in this paper's assay): ●
CO[C@H]1/C=C/O[C@@]2(C)Oc3c(C)c(O)c4c(c3C2=O)C2=NC3(CCN(CC(C)C)CC3)NC2=C(NC(=O)/C(C)=C\C=C\[C@H](C)[C@H](O)[C@@H](C)[C@@H](O)[C@@H](C)[C@H](OC(C)=O)[C@@H]1C)C4=O [Rifabutin]	-31.8						95.3	77.1	32.3	viability at 0.1 µM (expanded OPCs; [2]): 86.7%; viability at 1 µM (expanded OPCs; [3]): 79.7%; viability at 10 µM (expanded OPCs; [4]): 37%; activation at 0.4 µM [1, 16]: 16.3%; activation at 0.4 µM ([1]; Rattus norvegicus, test compound at 0.4 uM, MBP expression relative to quetiapine, NCC library screen, sheet "All OLga data", read-out: 0.4 uM (% Quet)): -0.04%; activation at 2 µM [1, 17]: -15.6%
Cc1cn([C@H]2C=C[C@@H](CO)O2)c(=O)[nH]c1=O [Stavudine]	-25.8						90.1	97.1	101.2	viability at 0.1 µM (expanded OPCs; [2]): 110%; viability at 1 µM (expanded OPCs; [3]): 91.5%; viability at 10 µM (expanded OPCs; [4]): 107%; activation at 10 µM [1, 6]: -25%; activation at 2 µM [1, 17]: -21.6%; activation at 10 µM [1, 18]: -35.1%
C#C[C@]1(O)CC[C@H]2[C@@H]3CCC4=CC(=O)CC[C@@H]4[C@H]3CC[C@@]21C [Norethindrone]		95	87.2	80.6	-0.9	-32				
CCCCc1nc(Cl)c(CO)n1Cc1ccc(-c2ccccc2-c2nn[nH]n2)cc1 [Losartan]	5.2									viability at 0.1 µM (expanded OPCs; [2]): 97.6%; viability at 1 µM (expanded OPCs; [3]): 91.6%; viability at 10 µM (expanded OPCs; [4]): 102%; activation at 10 µM [1, 6]: -7.3%
CC(N/C(=N\C#N)Nc1ccncc1)C(C)(C)C (centres unmarked) [Pinacidil]		90.8	98.8	93.6	-0.57	26.1				
c1ccc(CC2=NCCN2)cc1 [Tolazoline]							90.4	94.2	86.6	activation at 2 µM [1, 17]: -2.4%; activation at 10 µM [1, 18]: -19.3%
CNCC[C@@H](Oc1ccccc1C)c1ccccc1 [Atomoxetine]	-20.9									viability at 0.1 µM (expanded OPCs; [2]): 87.4%; viability at 1 µM (expanded OPCs; [3]): 74.9%; viability at 10 µM (expanded OPCs; [4]): 33.8%; activation at 0.4 µM [1, 16]: -17.2%
CS(=O)(=O)OCCCCOS(C)(=O)=O [Busulfan]					2.3	-6.2	93.9	91.8	79.1	
CC(=O)[C@H]1CC[C@H]2[C@@H]3C[C@H](C)C4=CC(=O)CC[C@]4(C)[C@H]3[C@@H](O)C[C@]12C [Medrysone]		130	125	121	-6	-16.5				
Nc1nc(Cl)nc2c1ncn2[C@H]1C[C@H](O)[C@@H](CO)O1 [Cladribine]		41.2	22.4	10.4						activation at 0.08 µM ([1]; Rattus norvegicus, test compound at 0.08 uM, NCC library screen, sheet "All OLga data", relative to quetiapine, read-out: 0.08 uM (% Quet)): -6.7%; activation at 0.4 µM [1, 15]: -22.9%
O=c1cnn([C@@H]2O[C@H](CO)[C@@H](O)[C@H]2O)c(=O)[nH]1 [Azauridine]										0.1 µM (% DMSO) (expanded OPCs; alamarBlue viability, NCC library compound at 0.1 µM, sheet "All Tox data"): 94.5 % DMSO; 1 µM (% DMSO) (expanded OPCs; alamarBlue viability, NCC library compound at 1 µM, sheet "All Tox data"): 93.6 % DMSO; 10 µM (% DMSO) (expanded OPCs; alamarBlue viability, NCC library compound at 10 µM, sheet "All Tox data"): 80.3 % DMSO; 2 uM (% Quet) ([1]; test compound at 2 uM, NCC library screen, sheet "All OLga data", relative to quetiapine): -8.7 % Quet; 10 uM (% Quet) ([1]; test compound at 10 uM, NCC library screen, sheet "All OLga data", relative to quetiapine): -6.4 % Quet
CO/N=C(\C(=O)N[C@@H]1C(=O)N2C(C(=O)O)=C(COC(C)=O)CS[C@H]12)c1csc(N)n1 [Cefotaxime]							97.0	88.3	82.3	activation at 2 µM [1, 17]: 9.9%; activation at 10 µM [1, 18]: 8.5%
COc1cc(C(=O)NC2CCCNC2)cc(OC)c1OC (centres unmarked) [Troxipide]	18									viability at 0.1 µM (expanded OPCs; [2]): 102%; viability at 1 µM (expanded OPCs; [3]): 115%; viability at 10 µM (expanded OPCs; [4]): 109%; activation at 10 µM [1, 6]: -6.8%
CN(C)[C@@H]1C(O)=C(C(N)=O)C(=O)[C@@]2(O)C(O)=C3C(=O)c4c(O)ccc(Cl)c4[C@@H](O)[C@H]3C[C@@H]12 [Demeclocycline]		96.3	90.6	88.4	-7.5	-21				
CNCC(O)c1ccc(O)cc1 (centres unmarked) [Synephrine]		85.8	94.3	93.4	-7.3	2.8				
CNS(=O)(=O)Cc1ccc2[nH]cc(CCN(C)C)c2c1 [Sumatriptan]	69.1	95.1	98.2	92.1						activation at 10 µM [1, 6]: 84.6%
CCc1c(C)[nH]c2c1C(=O)C(CN1CCOCC1)CC2 (centres unmarked) [Molindone]							90.6	95.4	105.0	activation at 2 µM [1, 17]: 1.6%; activation at 10 µM [1, 18]: -34.4%
Cc1noc(NS(=O)(=O)c2ccc(N)cc2)c1C [Sulfisoxazole]		93.5	99.1	103	-3.5	7.6				
